Assay results as given in patent US20230054595A1, “NOVEL DRUGGABLE TARGETS FOR THE TREATMENT OF INFLAMMATORY DISEASES SUCH AS SYSTEMIC LUPUS ERYTHEMATOSUS (SLE) AND METHODS FOR DIAGNOSIS AND TREATMENT USING THE SAME” (THE CHILDREN'S HOSPITAL OF PHILADELPHIA, priority 2019, published 2023).

Test system: TFH cells
Assay: IL-21 secretion by in vitro differentiated TFH cells cultured with pharmacologic inhibitors (ELISA)
Type: cell-based, human
Conditions: 5 days with inhibitor (A64 150-2500 nM; PF06260933 3.7-100 nM), restimulated with anti-CD3+anti-CD28, ELISA
Method: Human primary CD4+ T cells were cultured under TFH condition for 5 days in the presence of the indicated concentrations of each inhibitor (150 nM to 2500 nM for A64, 3.7 nM to 100 nM for PF06260933). In addition, anti-CD3- and anti-CD28-stimulated human CD4+ T cells (non-TFH) were cultured in the presence of inhibitors. After 5 days of primary culture, cells were harvested and 10^6 cells were restimulated with plate-bound human anti-CD3+ anti-CD28 (1 ug/ml each) in the presence of inhibitors. Culture supernatants were collected at the indicated timepoints for measurement of IL-2 and IL-21 by ELISA (eBioscience).

Nc1ccc(-c2cnc(N)c(-c3ccc(Cl)cc3)c2)cn1 [PF06260933]
IL-21 production by TFH cells: dose-dependent reduction | IL-21 production by TFH cells (listed as MINK inhibitory drug): dose-dependent inhibition
